Measurements taken from patent EP4603105A1, “PHARMACEUTICAL COMPOSITION CONTAINING CYCLIC COMPOUND HAVING SELECTIVE KRAS INHIBITORY EFFECT AGAINST HRAS AND NRAS” (CHUGAI SEIYAKU KABUSHIKI KAISHA, priority 2022, dated 2024).
*1 amine or outer side, *2 acyl side, *3 side chain or, on linkers, in order; H or OH if unused. Where a SMILES comes first, the peptide text is derived from it. Bridges are numbered along the chain shown (N, C = ends). [ ]: non-standard residue; d: D form. The star is where a group is joined. hPhe(3-Cl-4-CF3) = N[C@@H](CCc1ccc(C(F)(F)F)c(Cl)c1)C(=O)O; NPrPhe(4-CF3) = CCCN[C@@H](Cc1ccc(C(F)(F)F)cc1)C(=O)O; X37 = Cc1ccc(C[C@@H](C(=O)[*:2])N(CCC(C)C)[*:1])cc1; X52 = C#CCN([C@@H](Cc1ccc(C)cc1)C(=O)[*:2])[*:1]; NMeGly(cPent) = CN[C@H](C(=O)O)C1CCCC1; NMeD = CN[C@@H](CC(=O)O)C(=O)O; NMeL = CN[C@@H](CC(C)C)C(=O)O; Morpholide = C1CN(*)CCO1; NMeA = CN[C@@H](C)C(=O)O; Ac5c = NC1(C(=O)O)CCCC1; Aze = O=C(O)[C@@H]1CCN1; Sar = CNCC(=O)O

Experiments:
[1] = test system: human lung cancer strain NCI-H441; format: cell-based
Experimental: A test compound was dispensed into a U-bottom 384-well plate as 40 nL serially diluted dimethyl sulfoxide solutions using a liquid handler Echo (LABCYTE). […] This cell suspension was dispensed in an amount of 40 µL per well into a plate containing the test compound, and cultured at 37°C in a 5% carbon dioxide gas incubator. Four days later, 20 µL of CellTiter-Glo (registered trademark) (Promega) was added to each well and […] was measured. […]

[2] = molecular target: GDP-bound NRAS wild-type protein (Homo sapiens, UniProt P01111); assay: Binding to NRAS by surface plasmon resonance (SPR), KD and KD ratio to KRAS; conditions: ratio of KD for GDP-bound NRAS wild-type protein to KD for KRAS
Sequence of GDP-bound NRAS wild-type protein (P01111 whole entry): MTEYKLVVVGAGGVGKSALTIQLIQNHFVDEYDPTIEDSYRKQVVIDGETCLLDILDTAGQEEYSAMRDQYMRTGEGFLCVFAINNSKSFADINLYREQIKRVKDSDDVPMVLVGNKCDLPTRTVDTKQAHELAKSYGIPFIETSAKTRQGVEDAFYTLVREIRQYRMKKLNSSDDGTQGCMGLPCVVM
Experimental: (§1) Surface plasmon resonance was used to analyze the binding affinity of compounds for KRAS, NRAS, and HRAS. The apparatus used was Biacore 8K, 8K+, or T200 (GE Healthcare), and the running buffer used was HBS (10 mM HEPES-NaOH, 150 mM NaCl, pH 7.4) containing 1 mM DTT, 10 mM MgCl2, 0.01% Tween 20, 10 µM GDP, and 4% DMSO.
(§2) Biotinylated Avi-tag fusion KRAS, NRAS, and HRAS proteins were expressed in E. coli BL21 (DE3) strains, and after cells were homogenized, they were purified using Streptavidin Mutein Matrix and Superdex 75. After purification, GDP-loaded KRAS, NRAS, and HRAS proteins were immobilized on the surface of Sensor Chip CAP (Cytiva) coated with Biotin CAPture Reagent in an immobilization amount of about 100 to 300 RU. Binding of each compound was evaluated by the Single Cycle Kinetics method, and a running buffer or a compound solution was added to the RAS protein non-immobilized surface and the immobilized surface to obtain a binding response. The flow rate was set to 100 µL/min, and in the compound-adding cycle, compound solutions having different concentrations were intermittently added for 75 seconds each, starting from a low concentration. […] In the blank cycle, a running buffer was intermittently added and not the compound solution. The Biotin CAPture Reagent and RAS proteins were immobilized for each cycle, and at the end of each cycle, the sensor chip was regenerated by the regeneration solution appended to the Biotin CAPture Kit (Cytiva). Measurement was carried out at 30°C.
(§3) The resulting sensorgram was subjected to curve fitting based on a 1:1 binding model on Biacore Insight Evaluation Software or T200 Evaluation Software, and thereby the dissociation constant KD of each compound with respect to KRAS, NRAS, and HRAS was determined. […] Blank indicates a compound from which the KD value with respect to NRAS or HRAS was not obtained.

[3] = molecular target: HRAS wild-type protein (Homo sapiens, UniProt P01112); assay: Binding to HRAS by surface plasmon resonance (SPR), KD and KD ratio to KRAS; conditions: ratio of KD for HRAS wild-type protein to KD for KRAS
Sequence of HRAS wild-type protein (P01112 whole entry): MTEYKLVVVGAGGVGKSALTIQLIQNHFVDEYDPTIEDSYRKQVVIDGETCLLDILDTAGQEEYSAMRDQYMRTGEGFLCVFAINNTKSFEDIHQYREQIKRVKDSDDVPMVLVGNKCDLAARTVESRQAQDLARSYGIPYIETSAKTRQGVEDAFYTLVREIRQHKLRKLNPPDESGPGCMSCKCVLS
Experimental: as §1, §2, §3

Row | Compound | IC50 [1] [nM] | NRAS /KRAS [2] | HRAS /KRAS [3]
1 | CC[C@H](C)[C@@H]1NC(=O)[C@H](CC)N(C)C(=O)C[C@@H](C(=O)N(C)CC)N(C)C(=O)[C@H](C2CCCC2)N(C)C(=O)C2(CCC2)NC(=O)[C@@H]2C[C@H](C)CN2C(=O)[C@H](CCc2ccc(C(F)(F)F)c(OC)c2)NC(=O)CN(C)C(=O)[C@H](Cc2ccc(C)cc2)N2CC/C=C\C[C@@H](C2=O)N(C)C(=O)CN(C)C1=O [PP1853] | 30.4 |  | 
2 | CC[C@H](C)[C@@H]1NC(=O)[C@H](CC(F)F)N(C)C(=O)C[C@@H](C(=O)N(C)C)N(C)C(=O)[C@H](C2CCCC2)N(C)C(=O)C2(CC(C)(C)C2)NC(=O)[C@@H]2C[C@@H](C)CN2C(=O)[C@H](CCc2ccc(C(F)(F)F)c(OC)c2)NC(=O)CN(C)C(=O)[C@H](Cc2ccc(C)cc2)N2CC/C=C\C[C@@H](C2=O)N(C)C(=O)CN(C)C1=O [PP1877] | 18.4 |  | 
3 | C#CCN1C(=O)[C@@H]2CCN2C(=O)[C@H](C)N(C)C(=O)[C@H]([C@@H](C)CC)NC(=O)[C@H](CC(C)C)N(C)C(=O)C[C@@H](C(=O)N2CCOCC2)N(C)C(=O)[C@H](C2CCCC2)N(C)C(=O)C2(CCCC2)NC(=O)[C@@H]2CCCN2C(=O)[C@H](CCc2ccc(C(F)(F)F)c(Cl)c2)NC(=O)CN(C)C(=O)[C@@H]1Cc1ccc(C)cc1 [PP0090] ([NMeL]I[NMeA][Aze][X52][Sar][hPhe(3-Cl-4-CF3)]P[Ac5c][NMeGly(cPent)][NMeD]-Morpholide; lactam N-11) | 1.9 |  | 
4 | CC[C@H](C)[C@@H]1NC(=O)[C@H](CC(C)C)N(C)C(=O)C[C@@H](C(=O)N2CCOCC2)N(C)C(=O)[C@H](C2CCCC2)N(C)C(=O)C2(CCCC2)NC(=O)[C@@H]2CCCN2C(=O)[C@H](CCc2ccc(C(F)(F)F)c(Cl)c2)NC(=O)CN(C)C(=O)[C@H](Cc2ccc(C)cc2)N(CCC(C)C)C(=O)CN(C)C(=O)CN(C)C1=O [PP0098] ([NMeL]I[Sar][Sar][X37][Sar][hPhe(3-Cl-4-CF3)]P[Ac5c][NMeGly(cPent)][NMeD]-Morpholide; lactam N-11) | 9.4 |  | 
5 | CCC[C@H]1C(=O)N[C@@H]([C@@H](C)CC)C(=O)N(C2CC2)CC(=O)N(C)[C@H]2C/C=C\CCN(C2=O)[C@@H](Cc2ccc(C)cc2)C(=O)N(C)CC(=O)N[C@@H](CCc2ccc(C(F)(F)F)c(C3CC3)c2)C(=O)N2C[C@H](OCC)C[C@H]2C(=O)NC2(CC(C)(C)C2)C(=O)N(C)[C@@H](C2CCCC2)C(=O)N(C)[C@H](C(=O)N(C)C)CC(=O)N1C [PP2881] |  | A (a compound having 10 or more and less than 20 is denoted as A) | A (a compound having 10 or more and less than 20 is denoted as A)
6 | CCO[C@@H]1C[C@H]2C(=O)NC3(CC(C)(C)C3)C(=O)N(C)[C@@H](C3CCCC3)C(=O)N(C)[C@H](C(=O)N3CCCCC3)CC(=O)N(C)[C@H]3CCCCc4ccc(cc4)C[C@@H](C(=O)N(C)CC(=O)N[C@@H](CCc4ccc(C(F)(F)F)c(OC)c4)C(=O)N2C1)N1CC/C=C\C[C@@H](C1=O)N(C)C(=O)CN(C)C(=O)[C@H]([C@@H](C)CC)NC3=O [PP3093] |  | A (a compound having 10 or more and less than 20 is denoted as A) | A (a compound having 10 or more and less than 20 is denoted as A)

Second part, led by results:

Row | IC50 [1] [nM] | Compound | NRAS /KRAS [2] | HRAS /KRAS [3]
7 | 3420 | CC[C@H](C)[C@@H]1NC(=O)[C@H](CC(C)C)N(C)C(=O)CSC[C@H](C(=O)N(C)C)N(C)C(=O)[C@H](C2CCCC2)N(C)C(=O)C2(CCCC2)NC(=O)[C@@H]2CCCN2C(=O)[C@H](CCc2cc(F)c(C(F)(F)F)c(F)c2)NC(=O)CN(C)C(=O)[C@H](Cc2ccc(C(F)(F)F)cc2)N2CC/C=C\C[C@@H](C2=O)N(C)C(=O)CN(C)C1=O [PP3109] |  | 
8 | 39.7 | CCCN1C(=O)CN(C)C(=O)CN(C)C(=O)[C@H]([C@@H](C)CC)NC(=O)[C@H](CC(C)C)N(C)C(=O)C[C@@H](C(=O)N2CCOCC2)N(C)C(=O)[C@H](C2CCCC2)N(C)C(=O)C2(CCCC2)NC(=O)[C@H](C)NC(=O)[C@H](CCc2ccc(C(F)(F)F)c(Cl)c2)NC(=O)CN(C)C(=O)[C@@H]1Cc1ccc(C(F)(F)F)cc1 [PP1914] ([NMeL]I[Sar][Sar][NPrPhe(4-CF3)][Sar][hPhe(3-Cl-4-CF3)]A[Ac5c][NMeGly(cPent)][NMeD]-Morpholide; lactam N-11) |  | 
